Read-outs that look alike come from different tables or passages of the source.
Key:
CHO cells = conditions: 24 h
Description: The study followed OECD Test Guideline 487 for micronucleus assessment in rodent CHO cells (ECACC ref: 85050302). Cells were seeded at 2,000/well in 96-well plates and incubated at 37 °C with 5% CO2. GAL (1–15) (2.52 mM stock) was tested at concentrations ranging from 3.12 to 50 μM for 24 h in six replicates. […] After treatment, cytochalasin B was added for 28 h to block cytokinesis, followed by fixation and Hoechst staining. Imaging was performed using the Operetta CLS High-Content Analysis System, and analysis was conducted with Harmony software and the in-house NucleusFinder App (ImageJ-based). NucleusFinder identified valid micronuclei under stringent criteria, excluding irregular structures ([Durcik et al., 2023]). The cytokinesis-block proliferation index (CBPI) was calculated to assess cytostatic effects, ensuring cytostasis remained below 60% to avoid secondary micronuclei induction due to cytotoxicity. Cytostasis was calculated as follows: %cytostasis = 100–100 [(CBPIT-1)/(CBPIC-1)] where T is the test compound treatment culture, C is the vehicle control culture, and CBPI = {(No. mononucleate cells) + (2 × No. binucleate cells) + (3 × No. multinucleate cells)}/(total number of cells).

CYP2C9 = CYP2C9 (Homo sapiens, UniProt P11712); assay: Cytochrome P450 inhibition assay in human liver microsomes (diclofenac substrate)
Description: (§1) The Cytochrome P450 (CYP450) inhibition assay was performed to assess GAL (1–15) using substrates specific for the CYP3A4, CYP2D6, and CYP2C9 isoforms. […] Following the addition of human liver microsomes (HLM) and specific substrates (testosterone for CYP3A4, dextromethorphan for CYP2D6, diclofenac for CYP2C9), reactions were incubated with shaking at 180 Hz (CYP3A4: 15 min; CYP2D6: 30 min; CYP2C9: 45 min). […] Reactions were quenched with acetonitrile, centrifuged, and analyzed using LC-MS/MS with a triple quadrupole mass spectrometer (AB SCIEX API4000) coupled to an Agilent 1290 HPLC system ([Fowler et al., 2022]). Data were processed using Genedata Screener software to calculate IC50 values.

rats [1] = system: rats; set-up: method as in Millón, 2014; conditions: 3 nmol intracerebroventricular; ref Millón, 2014; cited from earlier work
CYP2D6 = CYP2D6 (Homo sapiens, UniProt P10635); assay: Cytochrome P450 inhibition assay in human liver microsomes (dextromethorphan substrate)
Description: as §1

Sprague Dawley rats [2] = assay: Operant alcohol self-administration test after intranasal administration; format: in vivo, rat; conditions: 75 μg intranasal, 1 h before test
Description: (§2) Male Sprague Dawley rats (body weight 200–225 g) were obtained from Charles River (Barcelona, Spain) and maintained in a humidity-controlled and temperature-controlled (20 °C–22 °C) room. Rats were maintained during the alcohol protocol on a 12-h reversed light/dark cycle (lights off at 9 a.m.). All animal experimentation was conducted in accordance with the University of Málaga Guidelines for the Care and Use of Laboratory Animals (Ethic Code: 22/05/2017/066).
(§3) Animals were preacclimated to the procedure and handled daily for 3 days to reduce stress. Rats were administered under light anaesthesia with isoflurane (3%–4% for induction and 1.5%–2% for maintenance) for approximately 2–3 min, sufficient to prevent movement during intranasal administration. A single intranasal infusion of GAL (1–15) (TOCRIS, Bristol, United Kingdom, molecular weight = 1557 g/mol) was administered at doses of 37.5 μg, 75 μg, 150 μg, or 300 μg, equivalent to those used with other peptides ([Serova et al., 2013]; [Serova et al., 2019]). Doses were dissolved in 20 μL of distilled water, with 10 μL administered into each nostril using a disposable plastic-tipped pipette, without inserting deeply, 30 min or 1 h before behavioral testing, as described previously ([Serova et al., 2013]; [Serova et al., 2019]). Care was taken to avoid contact with the intranasal mucosa. After intranasal administration, the animal’s head was held back for approximately 15 s to prevent loss of solution from the nostrils. Animals returned to normal behavior within 1–2 min, and no subjects needed to be withdrawn due to intolerance.
Training and testing were conducted in standard operant chambers (Panlab, Barcelona, Spain). Each chamber (250 mm W × 250 mm D × 250 mm H) was equipped with a drinking reservoir positioned 4 cm above the grid floor in the center of the front panel of the chamber, and two retractable levers were located 3 cm to right an left of the dinking receptacle. Each reservoir was calibrated to dispense 0.1 mL when the fixed ratio of lever presses was obtained. Chambers were connected to a computer running Packwin Sofware (2.0, Panlab, Barcelona, Spain).
Alcohol consumption was assessed using the previous self-administration test ([Cantero-García et al., 2022a]; [Cantero-García et al., 2022b]; [Lebourgeois et al., 2018]) (Figure 1B). Briefly, rats were exposed to intermittent consumption of 0.2% saccharin and 10% alcohol for 3 weeks. After that, rats were placed on a water restriction schedule for 2–4 days to facilitate training in lever pressing. […]

rats [3] = system: rats; set-up: method as in Millón et al., 2019b; conditions: voluntary intake model; ref Millón et al., 2019b; cited from earlier work
CYP3A4 = target: T1, CYP3A4 (Homo sapiens, UniProt P08684); assay: Cytochrome P450 inhibition assay in human liver microsomes (testosterone substrate); format: in vitro ADME
T1 construct: Following the addition of human liver microsomes (HLM) and specific substrates; from tissue; host or cells: human liver microsomes
Description: as §1

rats [4] = system: rats; set-up: method as in Cantero-García et al., 2022a; conditions: 3 nmol intracerebroventricular; ref Cantero-García et al., 2022a; cited from earlier work
Sprague Dawley rats [5] = assay: Forced swimming test (FST) after intranasal administration; format: in vivo, rat; conditions: for Climbing / Immobility / Swimming: mean ± SEM
Description: as §2, §3
Depressive behavior was assessed using the FST, as described previously ([Millón et al., 2014]; [Cantero-García et al., 2022b]). Briefly, two swimming sessions were conducted: a 15-min pretest followed 24 h later by a 5-min test. Animals were individually placed in a vertical glass cylinder of 20 cm diameter containing water (25 °C) to a height of 30 cm. Immobility, swimming and climbing behaviors were evaluated and recorded during the second 5-min test. Behavioral scoring was conducted by a blinded experimenter using coded videos to ensure objectivity.
Two experiments were conducted in the FST (Figure 1A). A dose-response curve of GAL (1–15) was performed in the first set of experiments. For this, groups of rats received GAL (1–15) intranasally 37.5 μg (n = 6), 75 μg (n = 6), 150 μg (n = 6) or 300 μg (n = 6) or distilled water (n = 12) 30 min before the test. The effects in the FST of GAL (1–15) intranasally at 1 h were studied in the second set of experiments. For this, groups of rats received GAL (1–15) intranasal 37.5 μg (n = 8), 75 μg (n = 8) or distilled water (n = 4–5) 1 h before the test. Animals were randomly assigned to treatment groups.

hERG potassium channel = hERG potassium channel (Homo sapiens, UniProt Q12809); assay: hERG inhibition, FluxOR potassium assay in hERG-expressing HEK293 cells
Description: Cardiotoxicity of GAL (1–15) was assessed in hERG-expressing HEK cells using the FluxOR™ potassium assay (Invitrogen) on a FLIPR TETRA system. Cells were preloaded with FluxOR™ dye, followed by incubation with GAL (1–15) in a 10-point half-log dose-response curve (max concentration: 50 µM). After a 30-min equilibration, the thallium stimulation buffer was injected to measure potassium flux kinetics. […] Data were analyzed using Genedata Screener software, with IC50 values determined via the Hill model ([Annang et al., 2021]; [Lee et al., 2019]).

[6] = 37.5 μg intranasal, 1 h before test
[7] = 75 μg intranasal, 1 h before test, p < 0.05 vs control
[8] = 150 μg intranasal, 30 min before test, p < 0.05
[9] = 300 μg intranasal, 30 min before test, p < 0.05

T1 sequence (P08684 whole entry): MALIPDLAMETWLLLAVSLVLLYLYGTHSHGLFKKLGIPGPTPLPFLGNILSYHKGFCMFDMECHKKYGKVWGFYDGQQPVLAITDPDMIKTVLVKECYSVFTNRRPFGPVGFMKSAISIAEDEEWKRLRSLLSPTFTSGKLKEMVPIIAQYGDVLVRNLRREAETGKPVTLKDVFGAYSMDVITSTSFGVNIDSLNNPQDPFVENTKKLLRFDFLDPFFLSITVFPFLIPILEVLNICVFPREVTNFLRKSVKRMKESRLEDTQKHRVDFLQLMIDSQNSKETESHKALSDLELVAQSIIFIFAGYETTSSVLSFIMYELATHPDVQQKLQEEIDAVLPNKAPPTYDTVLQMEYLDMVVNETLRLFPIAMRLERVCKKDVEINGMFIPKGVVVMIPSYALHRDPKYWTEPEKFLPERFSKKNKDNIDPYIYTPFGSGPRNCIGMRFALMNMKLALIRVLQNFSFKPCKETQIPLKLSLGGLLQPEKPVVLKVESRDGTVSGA
Chain of CYP2C9 (P11712 whole entry, canonical isoform): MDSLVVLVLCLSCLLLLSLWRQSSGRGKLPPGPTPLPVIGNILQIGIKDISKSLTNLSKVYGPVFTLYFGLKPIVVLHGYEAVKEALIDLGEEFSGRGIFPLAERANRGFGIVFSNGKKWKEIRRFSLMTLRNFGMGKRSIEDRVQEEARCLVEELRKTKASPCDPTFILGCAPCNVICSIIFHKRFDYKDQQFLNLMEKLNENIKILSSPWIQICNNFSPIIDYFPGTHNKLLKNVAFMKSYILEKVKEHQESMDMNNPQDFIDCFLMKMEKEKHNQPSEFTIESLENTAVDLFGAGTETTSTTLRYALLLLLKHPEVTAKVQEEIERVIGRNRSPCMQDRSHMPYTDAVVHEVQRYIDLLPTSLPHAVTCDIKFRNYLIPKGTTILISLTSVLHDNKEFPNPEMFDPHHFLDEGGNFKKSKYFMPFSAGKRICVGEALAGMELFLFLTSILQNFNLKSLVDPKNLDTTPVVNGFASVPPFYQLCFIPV
Chain of CYP2D6 (P10635 whole entry): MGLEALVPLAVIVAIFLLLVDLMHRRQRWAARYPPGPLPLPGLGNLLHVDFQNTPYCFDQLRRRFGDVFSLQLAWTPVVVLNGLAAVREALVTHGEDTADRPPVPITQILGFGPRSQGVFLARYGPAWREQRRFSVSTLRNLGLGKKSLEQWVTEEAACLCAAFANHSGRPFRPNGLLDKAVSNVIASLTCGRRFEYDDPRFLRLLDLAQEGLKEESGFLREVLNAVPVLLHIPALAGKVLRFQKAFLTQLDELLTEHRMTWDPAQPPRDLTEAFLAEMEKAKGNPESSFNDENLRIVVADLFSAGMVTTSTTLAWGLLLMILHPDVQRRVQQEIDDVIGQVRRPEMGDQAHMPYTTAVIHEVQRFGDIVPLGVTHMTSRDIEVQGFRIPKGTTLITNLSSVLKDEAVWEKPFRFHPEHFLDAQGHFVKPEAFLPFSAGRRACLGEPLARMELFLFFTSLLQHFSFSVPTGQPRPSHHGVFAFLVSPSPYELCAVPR
Chain of hERG potassium channel (Q12809 whole entry): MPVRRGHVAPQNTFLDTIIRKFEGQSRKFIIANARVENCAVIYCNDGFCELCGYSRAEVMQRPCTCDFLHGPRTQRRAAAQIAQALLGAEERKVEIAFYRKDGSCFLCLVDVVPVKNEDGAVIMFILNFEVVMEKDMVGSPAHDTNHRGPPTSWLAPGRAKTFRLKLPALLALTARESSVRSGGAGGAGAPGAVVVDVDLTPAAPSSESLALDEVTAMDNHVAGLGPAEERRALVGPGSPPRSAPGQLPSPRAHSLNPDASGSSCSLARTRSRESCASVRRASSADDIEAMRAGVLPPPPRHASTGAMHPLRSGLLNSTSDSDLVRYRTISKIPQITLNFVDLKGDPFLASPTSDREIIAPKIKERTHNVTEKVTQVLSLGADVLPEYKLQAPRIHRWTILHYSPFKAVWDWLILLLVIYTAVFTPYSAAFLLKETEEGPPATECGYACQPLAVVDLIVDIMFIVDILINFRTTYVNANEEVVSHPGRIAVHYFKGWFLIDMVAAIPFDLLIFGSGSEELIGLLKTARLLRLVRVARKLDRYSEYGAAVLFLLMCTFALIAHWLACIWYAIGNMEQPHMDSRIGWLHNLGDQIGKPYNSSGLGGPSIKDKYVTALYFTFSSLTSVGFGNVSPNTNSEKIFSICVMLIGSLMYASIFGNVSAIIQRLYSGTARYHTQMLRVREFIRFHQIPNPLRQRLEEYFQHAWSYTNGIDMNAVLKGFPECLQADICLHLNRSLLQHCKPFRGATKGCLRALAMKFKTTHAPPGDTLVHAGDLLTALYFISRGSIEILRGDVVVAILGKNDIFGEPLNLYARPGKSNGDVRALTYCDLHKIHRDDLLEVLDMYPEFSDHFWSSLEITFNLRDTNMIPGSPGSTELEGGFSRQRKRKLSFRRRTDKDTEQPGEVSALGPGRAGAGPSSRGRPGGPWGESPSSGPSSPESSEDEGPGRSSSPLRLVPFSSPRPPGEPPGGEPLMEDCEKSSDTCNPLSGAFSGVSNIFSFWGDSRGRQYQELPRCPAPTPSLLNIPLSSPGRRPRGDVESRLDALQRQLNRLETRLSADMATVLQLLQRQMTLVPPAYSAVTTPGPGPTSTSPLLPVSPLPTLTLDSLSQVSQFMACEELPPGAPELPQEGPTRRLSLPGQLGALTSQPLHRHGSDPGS

CC(C)C[C@H](NC(=O)[C@H](CC(C)C)NC(=O)[C@H](Cc1ccc(O)cc1)NC(=O)CNC(=O)[C@H](C)NC(=O)[C@H](CO)NC(=O)[C@H](CC(N)=O)NC(=O)[C@H](CC(C)C)NC(=O)[C@@H](NC(=O)[C@H](Cc1c[nH]c2ccccc12)NC(=O)CN)[C@@H](C)O)C(=O)NCC(=O)N1CCC[C@H]1C(=O)N[C@@H](Cc1cnc[nH]1)C(=O)N[C@@H](C)C(=O)O [GAL (1–15), Galanin (1–15)]
% Cytostasis (CHO cells; 3.125 µM): 0% | % MN (CHO cells; 3.125 µM): 8.39% | No. binucleate cells (CHO cells; 3.125 µM): 3,324 | No. of binucleated cells with MN (CHO cells; 3.125 µM): 278 | % Cytostasis (CHO cells; 6.25 µM): 0% | % MN (CHO cells; 6.25 µM): 8.28% | No. binucleate cells (CHO cells; 6.25 µM): 3,210 | No. of binucleated cells with MN (CHO cells; 6.25 µM): 265 | % Cytostasis (CHO cells; 12.5 µM): 0% | % MN (CHO cells; 12.5 µM): 8.53% | No. binucleate cells (CHO cells; 12.5 µM): 3,209 | No. of binucleated cells with MN (CHO cells; 12.5 µM): 273 | % Cytostasis (CHO cells; 25 µM): 0% | % MN (CHO cells; 25 µM): 8.70% | No. binucleate cells (CHO cells; 25 µM): 3,135 | No. of binucleated cells with MN (CHO cells; 25 µM): 272 | % Cytostasis (CHO cells; 50 µM): 0.1% | % MN (CHO cells; 50 µM): 7.94% | No. binucleate cells (CHO cells; 50 µM): 3,108 | No. of binucleated cells with MN (CHO cells; 50 µM): 246 | Micronucleus formation (CHO cells; any tested concentration, highest 50 μM): did not induce micronucleus formation | IC50 (CYP2C9): > 26 µM | CYP2C9 inhibitory potency class (CYP2C9; human liver microsomes): weak (weak inhibitors (IC50 > 10 μM)) | IC50 at 45 min (CYP2C9; human, microsomes, pH 7.4): > 23 µM | Decrease in climbing behavior in FST (rats [1]): 46% | Increase in immobility in FST (rats [1]): 44% | IC50 (CYP2D6): > 26 µM | CYP2D6 inhibitory potency class (CYP2D6; human liver microsomes): weak (weak inhibitors (IC50 > 10 μM)) | IC50 at 30 min (CYP2D6; human, microsomes, pH 7.4): > 23 µM | Total number of inactive lever presses vs control (Sprague Dawley rats [2]): did not significantly differ | Active lever presses vs control (Sprague Dawley rats [2]; 30-min session, p < 0.01): significantly reduced | Number of alcohol reinforcements vs control (Sprague Dawley rats [2]; 30-min session, p < 0.01): marked decrease | Inactive lever presses (Sprague Dawley rats [2]; mean ± SEM): 0.2 ± 0.1 | Decrease in alcohol preference and consumption (rats [3]): 90% | CYP3A4 inhibitory potency class (CYP3A4): weak (weak inhibitors (IC50 > 10 μM)) | IC50 at 15 min (CYP3A4; pH 7.4, testosterone substrate, N = 3, read-out: CYP3A4 IC50 [lower and upper 95%]): > 23 µM | IC50 (CYP3A4; testosterone substrate, N = 3, read-out: CYP3A4 IC50 [lower and upper 95%]): > 26 µM | Number of alcohol reinforcements (rats [4]): significantly reduced | Behavioral effects in the FST (Sprague Dawley rats [5]; 37.5 μg intranasal, 30 min before test): did not produce significant behavioral effects | Immobility, swimming, or climbing behaviors in FST vs control (Sprague Dawley rats [5]; [6]): no significant alterations | Climbing (Sprague Dawley rats [5]; [6]): 109.6 ± 16.26 s | Immobility (Sprague Dawley rats [5]; [6]): 59.10 ± 23.04 s | Swimming (Sprague Dawley rats [5]; [6]): 97.75 ± 16.01 s | Immobility time in FST vs control (Sprague Dawley rats [5]; 75 μg intranasal, 30 min before test, p < 0.001): significant increase in immobility time | Swimming time in FST vs control (Sprague Dawley rats [5]; 75 μg intranasal, 30 min before test, p < 0.01): significantly decreased swimming time | Swimming (Sprague Dawley rats [5]; 75 μg intranasal, 1 h before test): 104.9 ± 15.86 s | Climbing (Sprague Dawley rats [5]; [7]): 62.96 ± 6.47 s | Immobility (Sprague Dawley rats [5]; [7]): 98.57 ± 18.74 s | Immobility time in FST vs control (Sprague Dawley rats [5]; 75 μg intranasal, 1 h before test, p < 0.05): increasing immobility time | Climbing time in FST vs control (Sprague Dawley rats [5]; 75 μg intranasal, 1 h before test, p ≤ 0.05): reducing climbing time | Immobility in FST vs control (Sprague Dawley rats [5]; [8]): significant increase in immobility | Swimming time in FST vs control (Sprague Dawley rats [5]; [8]): reduction in swimming time | Immobility in FST vs control (Sprague Dawley rats [5]; [9]): significant increase in immobility | Swimming time in FST vs control (Sprague Dawley rats [5]; [9]): reduction in swimming time | Climbing time in FST (Sprague Dawley rats [5]; any of the tested doses (37.5-300 μg) intranasal, 30 min before test): No effects were observed | IC50 (hERG potassium channel; Cardiotoxicity classification from hERG IC50, FluxOR potassium assay, HEK293-hERG): > 10 µM | IC50 (hERG potassium channel; hERG IC50, HEK293 cells stably expressing hERG, FluxOR potassium assay, n = 3): 20.9 µM

Reference: article PMC12689952 (Frontiers in Pharmacology, 2025)
